The test system of one data set is C. neoformans ATCC 66031. Briefly: Fungal MIC susceptibility assay, C. neoformans. The conditions noted are these: Table 4, antifungal. It counts as cell-based. The procedure:
(§1) Fungal minimum inhibition concentrations (MICs) were determined using standard microdilution methods according to the Clinical and Laboratory Standards Institute document M27-A3. The test compound concentration ranged from 0.01 to 100 μM. Amphotericin B (AmB) and itraconazole (ITC) (Fisher Scientific) were included as positive controls. DMSO, the vehicle control, was used at ≤1% v/v for these experiments. The fungal M27-A3 standard MIC assay protocol requires the following inoculum preparation protocol: The organisms were cultured onto PDA medium at 35° C. The inoculum is prepared by picking five colonies from 24-hour old culture of Candida spp. or 48-hour old culture of C. neoformans. The inoculum was suspended in 5 ml of sterile water, the resulting suspension was vortexed for 15 seconds and the cell density adjusted (by adding more sterile water) to an OD530=0.30, which yields a suspension of 1×10^6 to 5×10^6 cells per mL. The suspension was diluted 50 times and then 20 times using RPMI 1640 medium to obtain the two times test inoculum (1×10^3 to 5×10^3 cells per mL). The following steps are the same with the standard bacterial MIC protocol using 96-well plates. NOTE: RPMI 1640 medium was used in the fungal MIC assay (for both cell inoculum and compound dilution).

The subject of the next data set is C. albicans SC5314. Put plainly: Fungal MIC susceptibility assay, C. albicans. The class given is cell-based, Candida albicans. The conditions noted are these: Table 4, antifungal. The procedure:
as §1

The subject of data set [1] is Klebsiella pneumoniae (ATCC 13883). Briefly: MIC broth microdilution, K. pneumoniae 13883. It counts as cell-based. The procedure: (§2) The minimum inhibitory concentration (MIC) for each tested compound was determined by the broth microdilution method as recommended by the Clinical and Laboratory Standards Institute (CLSI). In a 96-well plate, eleven two-fold serial dilutions of each compound were made in a final volume of 100 μL Luria Broth. Each well was inoculated with ˜10^5 bacterial cells at the initial time of incubation, prepared from a fresh log phase culture (OD600 of 0.5 to 1.0 depending on bacterial strain). The MIC was defined as the lowest concentration of compound that prevented bacterial growth after incubating 16 to 18 hours at 37° C. (MIC values were supported by spectrophotometric readings at OD600). DMSO served as our vehicle and negative control in each microdilution MIC assay. DMSO was serially diluted with a top concentration of 1% v/v.
as §2, with “for each compound was” for “for each tested compound was”, “Standards Institute (CLSI).^6 In a” for “Standards Institute (CLSI). In a”, “concentration of test compound that” for “concentration of compound that”, “37° C. The concentration range tested for each compound during this study was 0.10 to 100 μM. DMSO served” for “37° C. (MIC values were supported by spectrophotometric readings at OD600). DMSO served”, “1% v/v. All MIC values were obtained from a minimum of three independent experiments.” for “1% v/v.”
(In general: In broth dilution the organism is exposed to a series of concentrations in liquid medium.)

In the next data set the test system is MRSE ATCC 35984 biofilms. Briefly: Calgary Biofilm Device assay (MBC/MBEC), MRSE 35984. The class given is cell-based, Staphylococcus epidermidis. The conditions noted are these: Table 2, CBD assay. The procedure:
(§3) The lid of the Calgary device was then removed, washed and transferred to another 96-well plate containing 2-fold serial dilutions of the test compounds (the “challenge plate”). The total volume of media with compound in each well in the challenge plate is 150 μL. […] The lid was then removed from the challenge plate and MBC/MBEC values were determined using different final assays. […] The MBC values were determined as the concentration giving a lack of visible bacterial growth (i.e., turbidity). […] In select experiments, pegs from the Calgary device were removed from lead biofilm eradicators after final incubation, sonicated for 30 minutes in PBS and plated out to determine biofilm cell killing of lead biofilm-eradicating agents (i.e., colony forming unit per milliliter, CFU/mL).
(§4) Using a Calgary Biofilm Device, bacterial biofilms are established on pegs suspended to the bottom of a 96-well plate lid. Following biofilm establishment on lid pegs, lids are then transferred to new 96-well plates containing serial dilutions of test compound and allowed to incubate. After compound treatment, 96-well plate lids with pegs are once again transferred to 96-well plates containing fresh media. During this final phase of the assay, viable biofilms will grow and disperse planktonic cells into the media where they will grow and give a turbid well result. Conversely, wells that have no growth are a result of pegs that had eradicated bacterial biofilms. The lowest concentration at which no turbidity is observed is the minimum biofilm eradication concentration (MBEC). Using the Calgary Biofilm Device, both minimum biofilm eradication concentrations and minimum bactericidal concentrations (MBC) for planktonic bacterial can be determined using one assay from a single bacterial culture (FIG. 3A).

The test system of data set [2] is Pseudomonas aeruginosa (PAO1). Briefly: MIC broth microdilution, PAO1. It counts as cell-based. The method, boiled down: (§5)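 LB, 11 × 2-fold serial dilutions, 0.10–100 μM; ~10^5 cells/well from log-phase culture; 16–18 h, 37° C. MIC = lowest conc. with no growth, OD600 supporting. DMSO vehicle control (≤1% v/v); ≥3 independent experiments.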
For data set [3], the system named is methicillin-resistant Staphylococcus aureus MRSA-2 (clinical isolate). Briefly: MIC broth microdilution, MRSA-2. It counts as cell-based. A digest of the protocol:
as §5

Data set [4] deals with Acinetobacter baumannii (ATCC 1794). Briefly: MIC broth microdilution, A. baumannii 1794. It counts as cell-based. The method, boiled down:
as §5

The test system of the next data set is MRSA BAA-1707. Put plainly: MIC broth microdilution, MRSA BAA-1707. It counts as cell-based, Staphylococcus aureus. A digest of the protocol:
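MIC values come from at least three independent experiments, with OD600 spectrophotometry supporting each call. Compounds were serially diluted two-fold in Luria Broth (0.10 to 100 μM) following CLSI guidance and inoculated with ~10^5 log-phase bacteria.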

The subject of data set [5] is methicillin-resistant Staphylococcus epidermidis (MRSE strain ATCC 35984). Briefly: MIC broth microdilution, MRSE 35984. The class given is cell-based. The method, boiled down:
as §5

Data set [6] deals with human red blood cells (hRBC). Briefly: Hemolysis of red blood cells. It counts as cell-based. The procedure: The washing was repeated three times with the buffer. In a 96-well plate, test compounds were added to the buffer from DMSO stocks. […] The plate was then incubated for 1 hour at 37° C. After incubation, the plate was centrifuged for 5 minutes at 3,500 rpm. Then 80 μL of the supernatant was transferred to another 96-well plate and the optical density (OD) was read at 405 nm. DMSO served as our negative control (0% hemolysis) while Triton X served as our positive control (100% hemolysis). […] All reported data correspond to three independent experiments. Ten-point dose-response curves were generated in 96-well plates to determine 50% hemolysis (HC50 values) of red blood cells.
The washing was repeated three times with the buffer. In 96-well plate, the test compounds were added to the buffer. Then 50 μL of 2% of hRBCs in the buffer were added to the test plate to make the final concentrations ranging from 0.2 to 200 μM of each test compound. The plate was then incubated for 1 hour at 37° C. After incubation, the plate was centrifuged for 5 minutes at 3500 rpm and then 80 μL of the supernatant was transferred to another 96-well plate and the Optical Density (OD) was read at 405 nm. DMSO served as our negative control (0% haemolysis) and Triton X served as our positive control (100% haemolysis). The HC50 (concentration of test compound required to lyse red blood cells by 50%) was calculated by plotting the dose-response curve (not shown) with Graphpad Prism 6.0. All data were obtained from three independent haemolysis experiments.

Data set [7] concerns vancomycin-resistant Enterococcus faecium (VRE strain ATCC 700221). Put plainly: MIC broth microdilution, VRE 700221. It counts as cell-based. The method, boiled down:
as §5

In data set [8] the test system is Escherichia coli clinical isolate (UAEC-1). Briefly: MIC broth microdilution, UAEC-1. It counts as cell-based. The procedure:
as §2
as §2, with “for each compound was” for “for each tested compound was”, “Standards Institute (CLSI).^6 In a” for “Standards Institute (CLSI). In a”, “concentration of test compound that” for “concentration of compound that”, “37° C. The concentration range tested for each compound during this study was 0.10 to 100 μM. DMSO served” for “37° C. (MIC values were supported by spectrophotometric readings at OD600). DMSO served”, “1% v/v. All MIC values were obtained from a minimum of three independent experiments.” for “1% v/v.”

A further data set has as its system VRE ATCC 700221 biofilms. Put plainly: Calgary Biofilm Device assay (MBC/MBEC), VRE 700221. It counts as cell-based, Enterococcus faecium. Particulars: Table 2, CBD assay. The procedure: as §3, §4
A further data set deals with MRSA BAA-1707 biofilms. Put plainly: Calgary Biofilm Device assay (MBC/MBEC), MRSA BAA-1707. It counts as cell-based, Staphylococcus aureus. The conditions noted are these: Table 2, CBD assay. The procedure:
as §3, §4

Structures are written as SMILES. Values after ≈ are worked out from the molar mass of the structure shown. Read-outs that look alike come from different tables or passages of the source. Marks after values point to notes of the source that are not given here. Where only a bound is given, the exact number is not on record here.

As to `C[C@@H]1[C@H](O)[C@@H](C)/C=C/C=C/C=C/C=C/C=C/C=C/C=C/[C@H](O[C@@H]2O[C@H](C)[C@@H](O)[C@H](N)[C@@H]2O)C[C@@H]2O[C@](O)(C[C@@H](O)C[C@@H](O)[C@H](O)CC[C@@H](O)C[C@@H](O)CC(=O)O[C@H]1C)C[C@H](O)[C@H]2C(=O)O` [Amp. B, Amphotericin B, reference compound], the “MIC C. neof 66031” value against C. neoformans ATCC 66031 turned out to be 0.1 µM (≈ 0.0924 µg/mL). Further, the “MIC C. albicans SC5314” value against C. albicans SC5314 was 0.78 µM (≈ 0.721 µg/mL).
Turning to `CCCCCCCCCCCC[N+](C)(C)Cc1ccccc1.[Cl-]` [BAC-12, reference compound], the “MIC K. pneumoniae 13883” value in data set [1] (Table 1) is on record as 75^a μM. Moreover, the “MIC K. pneu. 13883” value in data set [1] (Table 4) was determined as 75a micromolar. Further, in the data set on MRSE ATCC 35984 biofilms (biofilm), the “MRSE 35984 MBEC” value was > 2000 µM. For the same compound, the MBC was determined as 11.7 µM in the data set on MRSE ATCC 35984 biofilms (planktonic cells), 31.3 µM in the data set on VRE ATCC 700221 biofilms (planktonic cells) and 15.6 µM with MRSA BAA-1707 biofilms (planktonic cells). The MIC (commonly the lowest concentration that inhibits growth of the organism) in data set [2] (Table 1) is >100 µM; in [3] (MRSA-2 and MRSA BAA-1707, read-out: MIC against two MRSA strains), 6.25 µM; in data set [3] (Table 1, read-out: MIC MRSA-2) it was 6.25 µM; in the data set with MRSA BAA-1707 (Table 1, read-out: MIC MRSA BAA-1707), 6.25 µM; in the data set on MRSA BAA-1707 (Table 2, read-out: MRSA BAA-1707 MIC), 6.25 µM; in [5] (Table 1, read-out: MIC MRSE 35984), 3.13 µM. Further, the MIC was 3.13 µM in data set [5] (Table 2, read-out: MRSE 35984 MIC); 25 µM in data set [7] (Table 1, read-out: MIC VRE 700221); 25 µM in [7] (Table 2, read-out: VRE 700221 MIC); 50 µM in data set [8] (Table 1). Also, the “MIC PAO1” value in [2] (Table 4) was >100 µM. Moreover, the “MIC MRSA-2” value in [3] (Table 4) came to 6.25 µM. For the same compound, in [4] (Table 1), the “MIC A. baumannii 1794” value is 75^a μM. The “MIC A. bau. 1794” value in data set [4] (Table 4) is 75a micromolar. Also, the “MIC MRSA 1707” value in the data set with MRSA BAA-1707 (Table 4) was determined as 6.25 µM. Besides, the “MIC MRSE 35984” value in data set [5] (Table 4) came out at 3.13 µM. The HC50 (in general, the concentration that lyses half of the red blood cells) in data set [6] is > 100 µM. Moreover, the “MIC VRE 700221” value in data set [7] (Table 4) is 25 µM. In data set [8] (Table 4), the “MIC UAEC-1” value was 50 µM. The “VRE 700221 MBEC” value with VRE ATCC 700221 biofilms (biofilm) worked out at 23.5 µM. For the same compound, the “MRSA BAA-1707 MBEC” value in the data set with MRSA BAA-1707 biofilms (biofilm) is > 1000 µM.
Take `CCCCCCCCCCCCCCCCn1cc[n+](Cc2ccc(C[n+]3ccn(CCCCCCCCCCCCCCCC)c3C)cc2)c1C` [Compound 28]: the MIC in data set [1] (Klebsiella pneumoniae, ATCC13883, Table 4, read-out: MIC K. pneu. 13883) is > 100 µM; in [2] (Pseudomonas aeruginosa, PAO1, Table 4) it was > 100 µM; in data set [3] (Staphylococcus aureus, MRSA, Table 4, read-out: MIC MRSA-2), > 100 µM; in [4] (Acinetobacter baumannii, ATCC1794, Table 4, read-out: MIC A. bau. 1794), > 100 µM; in the data set on MRSA BAA-1707 (Staphylococcus aureus, Table 4, read-out: MIC MRSA 1707) it was > 100 µM; in data set [5] (Staphylococcus epidermidis, Table 4, read-out: MIC MRSE 35984), > 100 µM. Also, the MIC with C. neoformans ATCC 66031 (Cryptococcus neoformans, ATCC66031, read-out: MIC C. neof 66031) was 25 µM; in [7] (Table 4, read-out: MIC VRE 700221), > 100 µM; in [8] (Escherichia coli, Table 4), > 100 µM; with C. albicans SC5314 (Candida albicans, SC5314) it was 50 µM.

The values above are taken from patent publication US11419335B2, “N-arylated analogues and uses thereof” (University of Florida Research Foundation, Incorporated, priority 2016, dated 2022).
